Measurements: US10051861B2, “N-arylamidine-substituted trifluoroethyl sulfide derivatives as acaricides and insecticides” (BAYER CROPSCIENCE AG, priority 2011, dated 2018)

What follows are compounds tested on greenhouse red spider mite (Tetranychus urticae) (assay: Tetranychus urticae spray test, OP-resistant (TETRUR), bean leaf disks). Settings: Tetranychus urticae, foliar, 144 h, application rate 500 g/ha, after 6 days; read-out: efficacy (spider mites killed).
Format: in vivo
Method: After 6 days, the effect in % is determined.

SMILES | pest or weed control at 500 g/ha
Cc1cc(F)c(/N=C(\c2ccccc2C(F)(F)F)N(C)C)cc1SCC(F)(F)F [Ia-245] | 90%
Cc1cc(F)c(/N=C(\NC2CCS(=O)(=O)C2)C2CC2)cc1SCC(F)(F)F (stereo not shown) [Ia-247] | 100%
CN/C(=N\c1cc(SCC(F)(F)F)c(Cl)cc1Cl)c1ccccn1 [Ia-248] | 90%
C#CCN/C(=N\c1cc(SCC(F)(F)F)c(C)cc1F)C1CC1 [Ia-249] | 100%
COc1cc(C)c(SCC(F)(F)F)cc1/N=C(/c1ccc(Cl)cc1)N(C)C [Ia-252] | 90%
FC(F)CN/C(=N\c1cc(SCC(F)(F)F)c(Cl)cc1Cl)C1CC1 [Ia-253] | 90%
FC(F)(F)CN/C(=N\c1cc(SCC(F)(F)F)c(Cl)cc1Cl)C1CCCC1 [Ia-254] | 90%
COc1cc(C)c(SCC(F)(F)F)cc1/N=C(\N)C1(Cl)CC1 [Ia-255] | 90%
FC(F)CN/C(=N\c1cc(SCC(F)(F)F)c(Cl)cc1Cl)C1CCCC1 [Ia-256] | 90%
Cc1cc(C)c(SCC(F)(F)F)cc1/N=C(\NCC(F)F)C1CCCC1 [Ia-257] | 90%
COC/C(N)=N/c1cc(SCC(F)(F)F)c(Cl)cc1Cl [Ia-258] | 90%
FC(F)(F)CN/C(=N\c1cc(SCC(F)(F)F)c(Cl)cc1Cl)C1CCC1 [Ia-259] | 90%
COc1cc(C)c(SCC(F)(F)F)cc1/N=C(\N)c1ccncn1 [Ia-260] | 90%
Cc1cc(F)c(/N=C(\NCC(F)(F)F)C2CCC2)cc1SCC(F)(F)F [Ia-261] | 90%
N/C(=N\c1cc(SCC(F)(F)F)c(Cl)cc1Cl)C1CCCO1 (stereo not shown) [Ia-262] | 90%
COc1ccc(/C(N)=N\c2cc(SCC(F)(F)F)c(C)cc2F)cc1 [Ia-263] | 90%
CN/C(=N\c1cc(SCC(F)(F)F)c(Cl)cc1Cl)c1ccc(C(F)(F)F)nc1 [Ia-264] | 90%
CN/C(=N\c1cc(SCC(F)(F)F)c(C)cc1C)c1cccc(Cl)c1 [Ia-265] | 90%
N/C(=N\c1cc(SCC(F)(F)F)c(Cl)cc1Cl)c1ccc(Cl)cc1 [Ia-266] | 90%
Cc1cc(C)c(SCC(F)(F)F)cc1/N=C(\NCC(F)(F)F)C1CCC1 [Ia-267] | 90%
Cc1cc(F)c(/N=C(/c2cccnc2)N2CCC(F)(F)CC2)cc1SCC(F)(F)F [Ia-269] | 90%
Cc1cc(F)c(/N=C(/c2ccc(Cl)cc2)N2CCC(F)(F)CC2)cc1SCC(F)(F)F [Ia-270] | 90%
Cc1cc(C)c(SCC(F)(F)F)cc1/N=C1\SCC(=O)N1CC(F)(F)F [Ia-272] | 100%
Cc1cc(Cl)c(/N=C2\SCC(=O)N2CC(F)(F)F)cc1SCC(F)(F)F [Ia-275] | 100%
Cc1cc(F)c(/N=c2\scc(C3(Cl)CC3)n2CC(F)(F)F)cc1SCC(F)(F)F [Ia-276] | 100%
Cc1cc(F)c(/N=C(\N)C2(Cl)CC2)cc1[S+]([O-])CC(F)(F)F (stereo not shown) [Ib-22] | 100%
CCN(C)/C(=N/c1cc([S+]([O-])CC(F)(F)F)c(C)cc1F)C(F)(F)F (stereo not shown) [Ib-23] | 90%
CN(C)/C(=N/c1cc([S+]([O-])CC(F)(F)F)c(Br)cc1Br)C(F)(F)F (stereo not shown) [Ib-25] | 100%
CN(C)/C(=N/c1cc([S+]([O-])CC(F)(F)F)c(Cl)cc1Cl)C(F)(F)F (stereo not shown) [Ib-26] | 100%
CN/C(=N\c1cc([S+]([O-])CC(F)(F)F)c(C)cc1F)c1cccnc1 (stereo not shown) [Ib-28, N′-{2-Fluoro-4-methyl-5-[(2,2,2-trifluoroethyl)sulfinyl]phenyl}-N-methylpyridine-3-carboximidamide] | 100%

Same assay, conditions: Tetranychus urticae, foliar, 144 h, read-out: efficacy (spider mites killed)

SMILES | pest or weed control at 500 g/ha
COc1cc(C)c(SCC(F)(F)F)cc1/N=C(/c1ccc(Cl)cc1)N1CCOCC1 [Ia-268, N-[(4-Chlorophenyl)(morpholin-4-yl)methylene]-2-methoxy-4-methyl-5-[(2,2,2-trifluoroethyl)sulfanyl]aniline] | 90%
